Experiment [1] concerns HCV replicon I389luc-ubi-neo/NS3-3'/ET in ET (Huh-lucubineo-ET) cells. The experiment can be described thus: Replicon assay (Biological Example 2), luciferase read-out. The experiment is classed as cell-based. As to conditions: Hepatitis C virus, luciferase activity 48 hours after compound addition. In outline:
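ET cells stably carry the replicon with adaptive mutations E1202G, […] and K1846T. Compound is added 24 h after plating at 0.1 nM–50 μM final (10-point, 3-fold dilutions) with 0.5% DMSO, and luciferase is read 48 h later. EC50 comes from a Hill-equation fit of % inhibition versus no-compound control.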

Experiment [2] has as its target T1, HCV polymerase (Hepatitis C virus genotype 1b, UniProt Q9WMX2).
T1 construct: (His)6 (C)
The experiment can be described thus: biochemical. The settings on record: polymerase assay of Biological Example 1; read-out: NS5B polymerase IC50.

Each structure is given as a SMILES string.

In general, IC50 refers to the midpoint of a concentration-inhibition curve.

With `CNC(=O)c1c(-c2ccc(Cc3ccccc3)cc2)oc2nc(N(CCCCC(=O)O)S(C)(=O)=O)c(C3CC3)cc12` [Example 27.6, 5-(N-(2-(4-benzylphenyl)-5-cyclopropyl-3-(methylcarbamoyl)furo[2,3-b]pyridin-6-yl)methylsulfonamido) pentanoic acid], the IC50 in experiment [1] is at most 100 nM; in experiment [2] it was 1 nM.

As to `CNC(=O)c1c(-c2ccc(F)cc2)oc2nc(N(CCCCC(=O)OC)S(C)(=O)=O)c(C3CC3)cc12` [Example 26.8, methyl 5-(N-(5-cyclopropyl-2-(4-fluorophenyl)-3-(methylcarbamoyl)furo[2,3-b]pyridin-6-yl)methylsulfonamido) pentanoate], the IC50 in experiment [1] was at most 100 nM; in experiment [2] it was 5 nM.

For `CNC(=O)c1c(-c2ccc(C)cc2)oc2nc(N(C)S(C)(=O)=O)c(I)cc12` [Example 2.9, 5-iodo-N-methyl-6-(N-methylmethylsulfonamido)-2-p-tolylfuro[2,3-b]pyridine-3-carboxamide], the IC50 in experiment [1] is at most 100 nM; in experiment [2], 16 nM.

With `CCc1cc2c(C(=O)NC)c(-c3ccc(F)cc3)oc2nc1N(CCCCS(C)(=O)=O)S(C)(=O)=O` [Example 23, 5-Ethyl-2-(4-fluoro-phenyl)-6-[methanesulfonyl-(4-methanesulfonyl-butyl)-amino]-furo[2,3-b]pyridine-3-carboxylic acid methylamide], the figures for the IC50 in experiment [1] and in experiment [2] were at most 100 nM and 22 nM, respectively.

For the compound `CNC(=O)c1c(-c2ccc(Oc3ccccc3)cc2)oc2nc(N(C)S(C)(=O)=O)c(C3CC3)cc12` [Example 16, 5-cyclopropyl-N-methyl-6-(N-methylmethylsulfonamido)-2-(4-phenoxyphenyl)furo[2,3-b]pyridine-3-carboxamide], the IC50 is at most 100 nM in experiment [1] and 3 nM in experiment [2].

With `CNC(=O)c1c(-c2ccc(F)cc2)oc2nc3c(cc12)C(C)C(O)CCN3S(C)(=O)=O` (centres unmarked) [Example 31, 2-(4-Fluoro-phenyl)-6-hydroxy-9-methanesulfonyl-5-methyl-6,7,8,9-tetrahydro-5H-1-oxa-9,10-diaza-cyclohepta[f]indene-3-carboxylic acid methylamide], the values for the IC50 in experiment [1] and in experiment [2] were at most 100 nM and 35 nM, respectively.

In the case of `CNC(=O)c1c(-c2ccc(C3CC3)cc2F)oc2nc(N(C)S(C)(=O)=O)c(C3CC3)cc12` [Example 2.98, 5-cyclopropyl-2-(4-cyclopropyl-2-fluorophenyl)-N-methyl-6-(N-methylmethylsulfonamido)furo[2,3-b]pyridine-3-carboxamide], the IC50 in experiment [1] was at most 100 nM; in experiment [2] it was 5 nM.

For `C=Cc1cc2c(C(=O)NC)c(-c3ccc(F)cc3)oc2nc1N(CCCC(=O)OC)S(C)(=O)=O` [Example 24.2, methyl 4-(N-(2-(4-fluorophenyl)-3-(methylcarbamoyl)-5-vinylfuro[2,3-b]pyridin-6-yl)methylsulfonamido) butanoate], the IC50 was at most 100 nM in experiment [1] and 42 nM in experiment [2].

For the compound `CNC(=O)c1c(-c2ccc(F)cc2)oc2nc(N(C)S(C)(=O)=O)c(CCCCC(C)(O)C(C)(C)O)cc12` (centres unmarked) [Example 4.9, 5-(5,6-dihydroxy-5,6-dimethylheptyl)-2-(4-fluorophenyl)-N-methyl-6-(N-methylmethylsulfonamido)furo[2,3-b]pyridine-3-carboxamide], the IC50 in experiment [1] is at most 100 nM; in experiment [2], 75 nM.

As for `CNC(=O)c1c(-c2ccc(C)cc2)oc2nc(N(CCCC3CCCS3(=O)=O)S(C)(=O)=O)c(I)cc12` (centres unmarked) [Example 18.99, 6-{[3-(1,1-Dioxo-tetrahydrophiophen-2-yl)-propyl]-methanesulfonyl-amino}-5-iodo-2-p-totyl-furo[2,3-b]pyridine-3-carboxylic acid methylamide], the IC50 in experiment [1] is at most 100 nM; in experiment [2], 5 nM.

The values above are taken from patent US20120015907A1, “Furopyridine compounds and uses thereof” (NOVARTIS AG, priority 2010, published 2012).
